Columns and labels:
DBA/1 mice = test: AGSz and S-IRA in DBA/1 mice tested for the first time at 16 h after FFA pretreatment; format: in vivo, mouse
Text: The typical seizure semiology in the DBA/1 mice begins with a wild running phase, followed by clonic-tonic seizures and then tonic hind-limb extension that immediately leads to S-IRA during post-ictal behavioral depression (PID). The onset of S-IRA was visually determined by the occurrence of respiratory failure following loss of the righting reflex, relaxation of the pinnae, and then a generalized loss of muscle tone. These behaviors are reliable indicators of imminent sudden death in DBA mice. Resuscitation was initiated within 10 s after pinna relaxation and the generalized loss of muscle tone, which was effective in reversing S-IRA and reviving >90% of the mice. The mice were placed in a supine position, and a polyethylene tube (4.4 mm external diameter) connected to the outflow of a rodent respirator (Harvard Apparatus 680), pumping one cc of room air at 200 strokes/min, was the placed over the nostrils, which produced observable displacement of the chest. Respiratory support was provided until spontaneous breathing rhythm returned, which required ˜19 sec. The mice were monitored until they regained the righting reflex and then returned to their home cage. Video recordings of seizure behaviors and recovery were made for off-line evaluation and analysis, including the duration of PID, as indicated by time from muscle tone loss to return of the righting reflex.
FIGS. 4A and 4B illustrate the reduction in the incidence of severe seizures and prevention of S-IRA by FFA pretreatment. In subsequent experiments, AGSz were examined in DBA/1 mice that were treated with 15 mg/kg of FFA i.p. but were initially tested at 16 h. […] [#p<0.001 (Chi-square test] (FIG. 4B). The return of S-IRA susceptibility (94.5%) in the FFA treated mice occurred at 48 h consistent with the previous findings (FIG. 2C).

Dravet syndrome patients = conditions: cited from earlier work
[1] = 15 mg/kg i.p., first tested at 16 h (n=73)

In the case of `CCNC(C)Cc1cccc(C(F)(F)F)c1` (racemic) [FFA, 3-trifluoromethyl-N-ethylamphetamine], the “overall incidence of S-IRA” value (DBA/1 mice; [1]) was 21.9%, the “overall incidence of tonic seizures” value (DBA/1 mice; [1]) was 68.5% and the “incidence of selective S-IRA blockade among mice that continued to display tonic seizures” value (DBA/1 mice; 15 mg/kg, 16 h (n=50)) was 68%. For the same compound, the “return of S-IRA susceptibility” value (DBA/1 mice; at 48 h after 15 mg/kg) was 94.5% and the “frequency and/or severity of intractable seizures” value (Dravet syndrome patients) was “significantly reduced”.

From patent publication US11571397B2, “Compositions and methods for treating seizure-induced sudden death” (ZOGENIX INTERNATIONAL LIMITED, priority 2018, dated 2023)
